Experimental findings from ChEMBL document CHEMBL3046244, “Efficient synthesis of piperazine-2,6-dione and 4-(1H-indole-2-carbonyl)piperazine-2,6-dione derivatives and their evaluation for anticancer activity” (2013) are described below.

Type in all cases: functional
For one test, the system named is HepG2. The test can be described thus: Growth inhibition of Homo sapiens (human) HepG2 cells at 10 uM after 48 hr by SRB assay. The following applies: HepG2, 48 h, read-out: GI. For orientation: The SRB assay estimates cell density from bound dye.
A further test has as its system NCI-H522. The test can be described thus: Growth inhibition of Homo sapiens (human) NCI-H522 cells at 10 uM after 48 hr by SRB assay. The following applies: NCI-H522, 48 h, read-out: GI.
Another test has as its system T47D. Description: Growth inhibition of Homo sapiens (human) T47D cells at 10 uM after 48 hr by SRB assay. The following applies: read-out: GI.
In the next test the test system is PA-1. The test can be described thus: Growth inhibition of Homo sapiens (human) PA1 cells at 10 uM after 48 hr by SRB assay. The conditions noted are these: PA-1, 48 h, read-out: GI.
Another test deals with HCT-15. The test can be described thus: Growth inhibition of Homo sapiens (human) HCT15 cells at 10 uM after 48 hr by SRB assay. The conditions noted are these: HCT-15, 48 h, read-out: GI.

Molecules are shown by their SMILES.

Turning to `O=C(c1cc2ccccc2[nH]1)N1CC(=O)N(C2CCCCC2)C(=O)C1`, the inhibition of growth at 10 µM in the test on HepG2 turned out to be 25%; in the test with NCI-H522 it was 6%; with T47D it was 7%; in the test with PA-1 it was 40%; in the test with HCT-15, 30%.
For `O=C(c1cc2ccccc2[nH]1)N1CC(=O)N(CCCn2ccnc2)C(=O)C1` the same measures were 34%, 0%, 0%, 17% and 7%.
In the case of `O=C(c1cc2ccccc2[nH]1)N1CC(=O)N(Cc2ccccn2)C(=O)C1`, the inhibition of growth at 10 µM was 34% in the test on HepG2; 19% in the test on NCI-H522; 20% in the test with T47D; 23% in the test on PA-1; 2% in the test with HCT-15.
For `O=C(c1cc2ccccc2[nH]1)N1CC(=O)N(Cc2cccnc2)C(=O)C1` the same measures were 17%, 4%, 12%, 13% and 14%.
In the case of `O=C(c1cc2ccccc2[nH]1)N1CC(=O)N(Cc2ccncc2)C(=O)C1`, the inhibition of growth at 10 µM in the test on HepG2 was 20%; in the test with NCI-H522, 5%; with T47D, 21%; in the test with PA-1 it was 42%; in the test on HCT-15 it was 38%.
Take `O=C(c1cc2ccccc2[nH]1)N1CC(=O)N(CCN2CCOCC2)C(=O)C1`: the inhibition of growth at 10 µM turned out to be 3% in the test with HepG2; 8% in the test with NCI-H522; 16% in the test with T47D; 18% in the test on PA-1; 7% in the test on HCT-15.
For `O=C(c1cc2ccccc2[nH]1)N1CC(=O)N(Cc2cccs2)C(=O)C1` the same measures were 45%, 0%, 6%, 24% and 15%.
Turning to `O=C(c1cc2ccccc2[nH]1)N1CC(=O)N(CCc2cccs2)C(=O)C1`, the inhibition of growth at 10 µM with HepG2 came out at 19%; in the test with NCI-H522, 14%; with T47D, 9%; in the test on PA-1 it was 11%; with HCT-15, 4%.
For `O=C(c1cc2ccccc2[nH]1)N1CC(=O)N(Cc2ccco2)C(=O)C1`, the inhibition of growth at 10 µM in the test with HepG2 came to 36%; in the test on NCI-H522 it was 15%; in the test on T47D, 21%; in the test on PA-1, 23%; in the test on HCT-15 it was 24%.
As to `O=C(c1cc2ccccc2[nH]1)N1CC(=O)N(CCN2CCCC2)C(=O)C1`, the inhibition of growth at 10 µM in the test with HepG2 came to 30%; with NCI-H522 it was 31%; in the test on T47D it was 16%; in the test with PA-1, 29%; in the test on HCT-15, 17%.
As for `O=C1CCCN1CCCN1C(=O)CN(C(=O)c2cc3ccccc3[nH]2)CC1=O`, the inhibition of growth at 10 µM worked out at 11% in the test with HepG2; 8% in the test with NCI-H522; 14% in the test with T47D; 8% in the test on PA-1; 27% in the test on HCT-15.
For the compound `O=C1CNCC(=O)N1C1CCCCC1`, the inhibition of growth at 10 µM turned out to be 38% in the test with HepG2; 11% in the test on NCI-H522; 15% in the test with T47D; 24% with PA-1; 7% with HCT-15.
Regarding `O=C1CNCC(=O)N1CCCn1ccnc1`, the inhibition of growth at 10 µM is 13% in the test with HepG2; 8% with NCI-H522; 8% in the test with T47D; 23% in the test with PA-1; 32% in the test on HCT-15.
On to `O=C1CNCC(=O)N1Cc1ccccn1`, for which the inhibition of growth at 10 µM in the test on HepG2 came to 31%; in the test with NCI-H522 it was 8%; in the test on T47D, 16%; in the test on PA-1, 17%; with HCT-15 it was 1%.
As for `O=C1CNCC(=O)N1Cc1cccnc1`, the inhibition of growth at 10 µM in the test on HepG2 was determined as 21%; in the test on NCI-H522, 4%; in the test with T47D, 8%; in the test on PA-1, 20%; in the test with HCT-15, 20%.
Turning to `O=C1CNCC(=O)N1Cc1ccncc1`, the inhibition of growth at 10 µM in the test on HepG2 turned out to be 25%; in the test with NCI-H522 it was 8%; in the test with T47D it was 4%; with PA-1 it was 27%; in the test with HCT-15 it was 33%.
Take `O=C1CNCC(=O)N1CCN1CCOCC1`: the inhibition of growth at 10 µM in the test on HepG2 is 38%; in the test on NCI-H522 it was 9%; in the test with T47D, 1%; in the test on PA-1, 37%; in the test on HCT-15 it was 4%.
For `O=C1CNCC(=O)N1Cc1cccs1` the same measures were 29%, 15%, 8%, 18% and 4%.
For `O=C1CNCC(=O)N1CCc1cccs1` the same measures were 24%, 21%, 16%, 15% and 25%.
Turning to `O=C1CNCC(=O)N1Cc1ccco1`, the inhibition of growth at 10 µM with HepG2 was 21%; with NCI-H522, 7%; in the test with T47D, 4%; in the test on PA-1, 26%; in the test on HCT-15, 30%.
Take `O=C1CNCC(=O)N1CCN1CCCC1`: the inhibition of growth at 10 µM worked out at 18% with HepG2; 0% in the test on NCI-H522; 1% with T47D; 26% with PA-1; 49% in the test with HCT-15.
For `O=C1CCCN1CCCN1C(=O)CNCC1=O` the same measures were 40%, 21%, 21%, 25% and 19%.
For `C[C@@H]1C[C@@H]([C@H](O)CC2CC(=O)NC(=O)C2)C(=O)[C@@H](C)C1` [CYCLOHEXIMIDE] the same measures were 26%, 15%, 11%, 34% and 16%.
For `O=P1(N(CCCl)CCCl)NCCCO1` (stereo not given) [CYCLOPHOSPHAMIDE ANHYDROUS] the same measures were 18%, 11%, 26%, 12% and 12%.
Consider `O=c1[nH]cc(F)c(=O)[nH]1` [FLUOROURACIL], for which the inhibition of growth at 10 µM with HepG2 amounted to 18%; with NCI-H522, 24%; in the test on T47D, 15%; in the test with PA-1, 22%; in the test with HCT-15, 19%.
